{"source": "patent US9346830B2", "about": "“Method for producing amino acid chelate compounds, amino acid chelate compounds and use of amino acid chelate compounds” (ISF AG, priority 2011, dated 2016)", "key": {"[1]": {"conditions": "for pH value upon addition to water: 45° C., aqueous solution", "experimental": "The procedure for both syntheses was identical so that they are summarized here. 54 g of CaO or respectively MgO were each subjected to a 10-minute activation. In order to have a sufficiently high operating temperature for the thermal activation, the empty mill was already brought to an operating temperature of 110° C. before the experiments. After the mechanical activation, a thermal activation of respectively 15 min. took place in both cases."}, "[2]": {"experiment": "bulk material properties", "format": "physicochemical", "conditions": "water content <2%", "description": "The grain shape was examined with the scanning electron microscope and produced the typical, needle-shaped crystals of the glycinates and their agglomerates. With respect to the bulk material properties, the particle distribution analysis found a d50 value of 50 μm. The material is free-flowing, has a water content of <2% and is stable."}}, "data": [{"smiles": "NCC(=O)[O-].NCC(=O)[O-].[Ca+2]", "note": "[calcium glycinate]", "values": [{"measurement": "pH value upon addition to water", "setting": "[1]", "result": 7.5}]}, {"smiles": "NCC(=O)[O-].NCC(=O)[O-].[Mg+2]", "note": "[magnesium glycinate]", "values": [{"measurement": "pH value upon addition to water", "setting": "[1]", "result": 8}]}, {"smiles": "NCC(=O)[O-].NCC(=O)[O-].[Cu+2]", "note": "[Example 1, bis (glycinato) copper]", "values": [{"measurement": "stability of the material", "setting": "[2]", "result": "stable"}]}, {"smiles": "[O]=[Mg]", "note": "[MgO]", "values": [{"measurement": "stability (non-dissolution) in the presence of HCl", "setting": "[1]", "result": "stable up to pH 0"}]}]}
